From article PMC5573420, “Correlation between human ether‐a‐go‐go‐related gene channel inhibition and action potential prolongation” (British Journal of Pharmacology, 2017)
Where two headings read alike, the source gives them in different places.

What was measured:
hiPSC-CMs = test: Optical measurement of action potential duration (APD90) in hiPSC-CMs using voltage-sensitive dye di-4-ANEPPS; details: for Maximal AP prolongation: maximal level over concentrations tested
Method: The plates were then incubated at 37°C, 5% CO2. Forty‐eight hours post‐thaw, 100% of the plating medium was replaced with CDI Maintenance Medium (CDI, CMC‐100‐120‐001), and further, 100% media changes were performed every 2 days after that.
Afterwards, the medium containing VSD was replaced by fresh serum‐free medium, and the cells were returned to the incubator. The multi‐well plate was placed in an environmentally controlled stage incubator (37°C, 5% CO2, water‐saturated air atmosphere) (Okolab Inc, Burlingame, CA, USA) of the CelIOPTIQ platform (Clyde Biosciences Ltd, Glasgow, Scotland). The di‐4‐ANEPPS fluorescence signal was recorded from a 0.2 × 0.2 mm area using a 40× (NA 0.6) objective lens. Excitation wavelength was 470 ± 10 nm using a light‐emitting diode (LED), and emitted light was collected by two photomultipliers (PMTs) at 510–560 and 590–650 nm respectively. LED, PMT, associated power supplies and amplifiers were supplied by Cairn Research Ltd (Kent, UK). […] A 20 s recording was then taken 30 min after exposure to the drug or vehicle with only one concentration applied per well. The records were subsequently analysed offline using proprietary software (CellOPTIQ). The procedure was repeated from four to five times, and parallel matched control (vehicle) measurements were taken on cardiomyocytes with equivalent concentrations of vehicle (DMSO). AP parameters were measured, including APD at 50, 75 and 90% repolarization (APD50, APD75 and APD90 respectively). Data are given as % change from control for the treated groups (vehicle, control and drug). This allowed a single comparison to be made at each concentration, and every experiment was performed with its own set of controls (vehicle). No data were used more than once.

hERG potassium channels = details: cited from earlier work
hERG channels = hERG channels (Homo sapiens, UniProt Q12809); test: hERG current inhibition, automated planar patch clamp in HEK293 cells stably expressing hERG
Method: Currents were low‐pass filtered at 10 kHz using the internal Bessel filter and sampled at 25 kHz. The extracellular solution for hERG current recording contained 140 mM NaCl, 4 mM KCl, 2 mM CaCl2, 1 mM MgCl2,5 mM D‐glucose and 10 mM HEPES (pH 7.4) (Sigma‐Aldrich). The intracellular solution for hERG current recording contained 50 mM KCl, 10 mM NaCl, 60 mM KF, 20 mM EGTA and 10 mM HEPES (pH 7.2). The extracellular solution for measuring sodium currents in HEK cells stably expressing the human clone of Nav1.5 (GenBank M77235) contained 4 mM KCl, 20 mM NaCl, 1.8 mM CaCl2, 0.75 mM MgCl2, 5 mM HEPES, 120 mM choline chloride and pH 7.4 using NaOH. The intracellular solution for sodium current recording contained 120 mM CsF, 20 mM CsCl, 5 mM EGTA, 5 mM HEPES and pH 7.4 using CsOH. All chemicals were obtained from Sigma‐Aldrich Chemie GmbH (Taufkirchen, Germany). The compound solutions were applied by means of the automated NPC‐16 Patchliner planar patch‐clamp platform.
Data are presented as mean ± SEM for at least five cells from two different batches or for three independent measurements with HEK293 cells.
The concentration–inhibition relationships were analysed by plotting the normalized values of peak tail current versus peak tail steady current in the presence of the respective cumulatively applied compound concentrations (Figure 4B, C). Data points were fitted using Hill equation.

[1] = Homo sapiens, 0.5 h, read-out: Changes in APD90 in hiPSC-CMs, 1 nM, 30 min exposure
[2] = Homo sapiens, 0.5 h, read-out: Changes in APD90 in hiPSC-CMs, 10 nM, 30 min exposure
[3] = Homo sapiens, 0.5 h, read-out: Changes in APD90 in hiPSC-CMs, 30 nM, 30 min exposure
[4] = Homo sapiens, 0.5 h, read-out: Changes in APD90 in hiPSC-CMs, 100 nM, 30 min exposure
[5] = Homo sapiens, 0.5 h, read-out: Changes in APD90 in hiPSC-CMs, 300 nM, 30 min exposure
[6] = Homo sapiens, read-out: D150 (concentration that prolongs the AP by 50%)
[7] = Homo sapiens, read-out: D150 (concentration that prolongs the AP by 50%), APD90 in hiPSC-CMs
[8] = read-out: Ki binding studies, radioligand binding, ref Shagufta et al 2009
[9] = Homo sapiens, 0.5 h, read-out: Changes in APD90 in hiPSC-CMs

Chain of hERG channels (Q12809 whole entry): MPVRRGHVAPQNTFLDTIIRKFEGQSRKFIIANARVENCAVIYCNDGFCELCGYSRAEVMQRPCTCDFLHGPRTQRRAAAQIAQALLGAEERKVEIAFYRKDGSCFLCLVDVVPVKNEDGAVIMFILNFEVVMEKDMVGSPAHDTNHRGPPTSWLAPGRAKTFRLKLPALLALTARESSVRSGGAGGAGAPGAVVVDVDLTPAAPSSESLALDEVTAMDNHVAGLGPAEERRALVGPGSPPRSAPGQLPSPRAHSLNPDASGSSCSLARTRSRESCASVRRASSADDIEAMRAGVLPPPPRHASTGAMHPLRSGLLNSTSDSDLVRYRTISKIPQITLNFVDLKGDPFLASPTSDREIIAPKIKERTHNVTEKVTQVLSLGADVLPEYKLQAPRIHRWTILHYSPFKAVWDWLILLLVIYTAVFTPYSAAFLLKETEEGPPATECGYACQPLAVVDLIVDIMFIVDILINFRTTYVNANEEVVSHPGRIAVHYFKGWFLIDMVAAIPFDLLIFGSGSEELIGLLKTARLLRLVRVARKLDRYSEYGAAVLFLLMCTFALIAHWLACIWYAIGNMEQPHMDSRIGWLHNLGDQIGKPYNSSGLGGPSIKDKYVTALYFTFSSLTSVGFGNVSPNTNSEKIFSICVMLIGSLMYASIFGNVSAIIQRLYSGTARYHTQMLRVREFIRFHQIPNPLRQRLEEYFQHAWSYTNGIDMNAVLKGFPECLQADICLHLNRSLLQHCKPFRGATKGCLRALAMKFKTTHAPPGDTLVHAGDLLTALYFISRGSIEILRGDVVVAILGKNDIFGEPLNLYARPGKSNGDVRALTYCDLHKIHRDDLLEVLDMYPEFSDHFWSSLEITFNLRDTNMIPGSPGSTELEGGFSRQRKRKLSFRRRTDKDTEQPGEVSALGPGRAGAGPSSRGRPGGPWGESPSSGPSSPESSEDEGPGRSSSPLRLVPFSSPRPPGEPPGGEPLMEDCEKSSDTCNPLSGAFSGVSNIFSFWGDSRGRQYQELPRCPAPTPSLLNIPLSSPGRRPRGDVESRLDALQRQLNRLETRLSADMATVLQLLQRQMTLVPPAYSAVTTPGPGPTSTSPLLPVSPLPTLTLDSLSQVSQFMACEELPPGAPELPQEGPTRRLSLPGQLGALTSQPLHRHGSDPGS

SMILES | activity at 0.001 µM (hiPSC-CMs; [1]) [%] | activity at 0.01 µM (hiPSC-CMs; [2]) [%] | activity at 0.03 µM (hiPSC-CMs; [3]) [%] | EC (50% APD prolongation) (hiPSC-CMs; [6]) [µM] | Incidence of EADs (hiPSC-CMs; hiPSC-CMs) | Maximal AP prolongation (hiPSC-CMs; hiPSC-CMs) [%] | EC (50% APD prolongation) (hiPSC-CMs; [7]) [µM] | IC50 (hERG channels) [nM] | activity at 0.01 µM (hiPSC-CMs; [9]) [%] | activity at 0.1 µM (hiPSC-CMs; [9]) [%] | activity at 0.3 µM (hiPSC-CMs; [9]) [%] | activity at 1 µM (hiPSC-CMs; [9]) [%] | also measured
O=[N+]([O-])c1ccc(CCN(CCF)CCOc2ccc([N+](=O)[O-])cc2)cc1 [Dofe60] | 95 | 112 | 185 | 0.0213 | incidence of EADs at the higher concentrations | ≤ 1000 |  |  |  |  |  |  | activity at 0.1 µM (hiPSC-CMs; [4]): 771%; activity at 0.3 µM (hiPSC-CMs; [5]): 413%
CN(CCOc1ccc(NS(C)(=O)=O)cc1)CCc1ccc(NS(C)(=O)=O)cc1 [Dofetilide, reference compound] | 246 | 641 | 827 |  | incidence of EADs at concentrations of 10, 30 and 100 nM |  | 4e-05 |  |  |  |  |  | Ki (hERG potassium channels): 4.1 ± 0.9 nM; Spontaneous rate of myocyte contraction (hiPSC-CMs; 100 nM, hiPSC-CMs): dramatically increased; activity at 0.0001 µM (hiPSC-CMs; Homo sapiens, 0.5 h, read-out: Changes in APD90 in hiPSC-CMs, 0.1 nM, 30 min exposure): 191%
Cc1ccc(CCN(C)CCOc2ccc(C)cc2)cc1 [Dofe33] |  |  |  |  |  | 250 |  |  |  |  |  |  | Effect on APD90 / AP prolongation (in words) (hiPSC-CMs): negligible effect on APD90 prolongation until 100 nM
CN(CCCOc1ccc([N+](=O)[O-])cc1)Cc1ccc([N+](=O)[O-])cc1 [Dofe78] |  |  |  |  | incidence of EADs at the higher concentrations | ≤ 1000 | 0.02 | 28.2 ± 4.9 | 116 | 420 | 300 | 417 | Ki (hERG potassium channels; [8]): 5.1 ± 1.9 nM
CN(CCOc1ccc([N+](=O)[O-])cc1)CCc1ccc([N+](=O)[O-])cc1 [Dofe35] | 102 | 159 | 770 | 0.0083 | incidence of EADs at the higher concentrations | ≤ 1000 |  | 22.1 |  |  |  |  | Ki (hERG potassium channels): 5.7 ± 3 nM; activity at 0.1 µM (hiPSC-CMs; [4]): 746%; activity at 0.3 µM (hiPSC-CMs; [5]): 650%
Cc1ccc(OCCN(C)CCc2ccccc2)cc1 [Dofe43] |  |  |  |  | without (if any) incidence of EADs |  | 0.0993 |  | 167 | 156 | 175 | 390 | 
CCN(CCOc1ccc([N+](=O)[O-])cc1)CCc1ccc([N+](=O)[O-])cc1 [Dofe54] | 107 |  | 702 | 0.0043 | incidence of EADs at the higher concentrations | ≤ 1000 |  | 2.6 ± 0.4 |  |  |  |  | Ki (hERG potassium channels; [8]): 1.2 ± 0.6 nM; activity at 0.1 µM (hiPSC-CMs; [4]): 710%
CN(CCOc1ccc(Cl)cc1)CCc1ccc(Cl)cc1 [Dofe31] |  |  |  |  |  |  | 0.151 |  | 100 | 108 | 214 | 296 | Incidence of EADs (hiPSC-CMs): without (if any) incidence of EADs; activity at 0.001 µM (hiPSC-CMs; [9]): 127%; activity at 0.03 µM (hiPSC-CMs; [9]): 103%
CN(CCOc1ccccc1)CCc1ccccc1 [Dofe30] |  |  |  |  | without (if any) incidence of EADs |  | 0.213 | 297 ± 77.5 | 99 | 105 | 190 | 140 | Ki (hERG potassium channels; [8]): > 10000 nM; activity at 0.03 µM (hiPSC-CMs; [9]): 92%
CN(CCCCOc1ccc([N+](=O)[O-])cc1)CCc1ccc([N+](=O)[O-])cc1 [Dofe81] | 117 | 389 | 858 | 0.0025 | incidence of EADs at the higher concentrations | ≤ 1000 |  | 10.7 |  |  |  |  | Ki (hERG potassium channels): 1.8 ± 1.6 nM
CN(CCOc1ccc(Cl)cc1)CCc1ccccc1 [Dofe41] |  |  |  |  | without (if any) incidence of EADs |  | 0.157 |  | 140 | 144 | 162 | 262 | 
